Test results taken from patent US10118929B2, “Nonanoic and decanoic acid derivatives and uses thereof” (SciFluor Life Sciences, Inc., priority 2016, dated 2018).

Legend:
αvβ6 = αvβ6 (Homo sapiens (Human), UniProt P06756+P18564); experiment: αVβ6-LAP-TGF β1 integrin binding assay (integrin coupled beads, flow cytometry); conditions: ligand LAP-TGF β1 10 nM; integrin 10 nM
Protocol: (§1) αVβ6/αVβ8-LAP-TGF β1 Binding Assay
(§2) Integrins αVβ6/αVβ8 coupled beads are treated with an αVβ6/αVβ8 ligand (e.g., LAP TGF-β1 (LAP1)), and the complex is incubated with a primary antibody (Ab), which can be labeled for detection (e.g., fluorescently labeled), and optionally with a secondary antibody, which can be labeled for detection (e.g., fluorescently labeled). Reaction between integrin coupled beads and the ligand was considered as the full reaction, and reaction without the ligand or a compound of the disclosure was considered as the blank reaction. The complex is analyzed, e.g., by either plate reader or Flow Cytometer, to determine modulation of binding between αVβ6/αVβ8 and the ligand (e.g., LAP-TGF β1) by the compounds of the present application.
All αv Integrins are known to bind to proteins with a RGD motif. […]
The integrin coupled Dyna beads were allowed to interact with respective ligands. The integrin-ligand complex was detected with either Primary/Secondary Antibody conjugated with Fluorescein Isothiocyanate (FITC). […] Fluorescence was measured by Flow Cytometry analysis. […]
(§3) The tubes were taken out and subjected to a quick spin. […] The amount of protein bound to beads was quantified by measuring the sum of protein left in the Supernatant, W1, W2, W3 and W4 through the Micro BCA method. […]

αvβ8 = αvβ8 (Homo sapiens (Human), UniProt P06756+P26012); experiment: αVβ8-LAP-TGF β1 integrin binding assay (integrin coupled beads, flow cytometry); conditions: for IC50: ligand LAP-TGF β1 20 nM, integrin 10 nM
Chain of αvβ8 (P06756 31-992): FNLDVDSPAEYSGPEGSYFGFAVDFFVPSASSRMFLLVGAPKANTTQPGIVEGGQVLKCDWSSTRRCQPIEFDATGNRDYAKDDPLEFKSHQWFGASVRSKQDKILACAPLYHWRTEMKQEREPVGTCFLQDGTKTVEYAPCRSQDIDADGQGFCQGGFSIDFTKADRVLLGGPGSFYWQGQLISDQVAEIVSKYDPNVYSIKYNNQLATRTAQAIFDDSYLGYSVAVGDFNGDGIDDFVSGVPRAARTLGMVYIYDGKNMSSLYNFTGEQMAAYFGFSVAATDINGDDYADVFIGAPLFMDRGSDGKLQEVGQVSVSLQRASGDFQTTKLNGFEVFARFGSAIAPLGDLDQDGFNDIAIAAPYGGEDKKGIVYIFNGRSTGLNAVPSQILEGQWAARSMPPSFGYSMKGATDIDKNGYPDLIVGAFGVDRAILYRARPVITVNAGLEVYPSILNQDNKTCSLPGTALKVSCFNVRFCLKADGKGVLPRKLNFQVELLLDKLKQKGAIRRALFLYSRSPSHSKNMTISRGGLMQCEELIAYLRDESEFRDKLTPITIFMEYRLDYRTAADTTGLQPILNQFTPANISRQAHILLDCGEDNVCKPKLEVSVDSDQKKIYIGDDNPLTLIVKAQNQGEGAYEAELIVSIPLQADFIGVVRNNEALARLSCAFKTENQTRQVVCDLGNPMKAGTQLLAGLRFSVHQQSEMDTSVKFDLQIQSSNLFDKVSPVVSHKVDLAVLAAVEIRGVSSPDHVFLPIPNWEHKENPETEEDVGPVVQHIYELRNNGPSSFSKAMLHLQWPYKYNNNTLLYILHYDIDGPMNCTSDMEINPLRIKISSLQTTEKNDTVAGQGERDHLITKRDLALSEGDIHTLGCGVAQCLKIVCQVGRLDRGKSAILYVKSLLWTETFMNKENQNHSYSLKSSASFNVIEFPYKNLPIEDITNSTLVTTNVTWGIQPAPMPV
Chain of αvβ8 (P26012 43-684): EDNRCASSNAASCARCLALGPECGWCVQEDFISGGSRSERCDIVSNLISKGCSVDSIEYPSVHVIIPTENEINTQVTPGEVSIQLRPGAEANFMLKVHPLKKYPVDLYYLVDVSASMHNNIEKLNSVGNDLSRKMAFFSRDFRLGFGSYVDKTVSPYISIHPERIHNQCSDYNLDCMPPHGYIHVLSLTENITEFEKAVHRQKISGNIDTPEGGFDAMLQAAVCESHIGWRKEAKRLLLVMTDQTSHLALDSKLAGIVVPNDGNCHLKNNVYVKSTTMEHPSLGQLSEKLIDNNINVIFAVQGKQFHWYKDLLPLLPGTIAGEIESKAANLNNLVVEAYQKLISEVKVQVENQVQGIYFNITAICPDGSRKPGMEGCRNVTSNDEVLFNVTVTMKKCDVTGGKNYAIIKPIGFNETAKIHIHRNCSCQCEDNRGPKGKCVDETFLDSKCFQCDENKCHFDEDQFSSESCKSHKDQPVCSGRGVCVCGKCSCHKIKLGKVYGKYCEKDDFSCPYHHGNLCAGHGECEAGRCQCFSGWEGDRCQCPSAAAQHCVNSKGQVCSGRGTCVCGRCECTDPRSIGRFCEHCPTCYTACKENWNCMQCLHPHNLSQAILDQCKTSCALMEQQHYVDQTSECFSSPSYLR
Protocol: as §1, §2
All αv Integrins are known to bind to proteins with a RGD motif. Two RGD ligands were used in this study: Vitronectin (VN) as a ligand for αvβ3 and αvβ5 (Wayner et al., J. Cell Biol., 113 (4), 919-929, 1991), and LAP TGF-β1 (LAP1) as a ligand for αvβ6 and αvβ8 (Rognoni et al., Nat. Med., 20(4): 350-359, 2014). CWHM12 was used as a positive control for αvβ6 and αvβ8 (Henderson et al., Nat. Med. 19(12), 10.1038/nm.3282 2013), and Cilengitide as a positive control for αvβ3 and αvβ5 (Kumar et al., J. Pharmacol. Exp. Ther., 283, 843-853, 1997).
The integrin coupled Dyna beads were allowed to interact with respective ligands. The integrin-ligand complex was detected with either Primary/Secondary Antibody conjugated with Fluorescein Isothiocyanate (FITC). For αvβ3 and αvβ5, Vitronectin was used as a ligand and a primary antibody conjugated with FITC (Anti-VN-FITC Ab) was used to detect the interaction. For αvβ6 and αvβ8, LAP-TGF β1 was used as ligand and a primary antibody against LAP1 (Anti-LAP1 Ab) and a secondary antibody conjugated with FITC were used to detect the αv β6/αvβ8-LAP-TGF β1 complex. Fluorescence was measured by Flow Cytometry analysis.
5 mg of Dyna beads were weighed in a low protein binding microfuge (Eppendorf) tube (1.5 mL volume). The beads were re-suspended in 1 mL of Sodium Phosphate Buffer and vortexed at high speed for 30 seconds. The tube was then placed in a tube roller and tilt rotated for 10 min. After tilt rotation, the tube was placed on the Magna Spin and the beads were allowed to settle. The supernatant was discarded and the beads were washed three times. The beads were then re-suspended in 100 μL of Sodium Phosphate Buffer and 20 μL of washed beads were distributed into 5 low protein binding Eppendorf tubes (1 mg of beads in each tube). The beads were used for coupling integrins. […]
as §3

Chain of αvβ6 (P06756 31-992): as the sequence (P06756 31-992) above
Chain of αvβ6 (P18564 22-707): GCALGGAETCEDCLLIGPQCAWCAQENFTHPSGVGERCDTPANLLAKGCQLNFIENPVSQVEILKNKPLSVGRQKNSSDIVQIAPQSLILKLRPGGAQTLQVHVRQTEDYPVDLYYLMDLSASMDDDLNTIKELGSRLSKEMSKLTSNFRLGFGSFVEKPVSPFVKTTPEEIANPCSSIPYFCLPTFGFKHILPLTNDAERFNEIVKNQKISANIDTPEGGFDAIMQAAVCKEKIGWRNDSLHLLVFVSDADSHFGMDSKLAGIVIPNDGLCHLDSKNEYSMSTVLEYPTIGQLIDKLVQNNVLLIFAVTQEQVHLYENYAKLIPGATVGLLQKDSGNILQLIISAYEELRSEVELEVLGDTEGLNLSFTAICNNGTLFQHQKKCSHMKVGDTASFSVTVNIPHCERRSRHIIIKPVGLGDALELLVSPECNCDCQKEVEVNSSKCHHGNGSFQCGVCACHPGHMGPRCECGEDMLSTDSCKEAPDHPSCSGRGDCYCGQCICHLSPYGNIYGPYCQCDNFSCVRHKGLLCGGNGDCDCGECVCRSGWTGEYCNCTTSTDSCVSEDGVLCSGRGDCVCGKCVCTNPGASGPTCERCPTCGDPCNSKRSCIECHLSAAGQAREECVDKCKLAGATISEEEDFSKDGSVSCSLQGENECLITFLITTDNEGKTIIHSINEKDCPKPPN

O=C(O)CC(c1cccc(C(F)(F)F)c1)N1CCN(CCCCNc2nc3ccccc3[nH]2)C1=O (stereo not drawn) [Compound A1, 3-(3-(4-((1H-benzo[d]imidazol-2-yl)amino)butyl)-2-oxoimidazolidin-1-yl)-3-(3-(trifluoromethyl)phenyl)propanoic acid]
IC50 (αvβ6): 376 nM | IC50 (αvβ8): 50.4 nM | αvβ8/αvβ6 (αvβ8; ratio of αvβ8 IC50 to αvβ6 IC50): 0.13

O=C(O)CC(c1cccc(C(F)(F)F)c1)N1CCN(CCCCNC2=NCc3ccccc3C2)C1=O (stereo not drawn) [Compound A8]
IC50 (αvβ8): 622 nM

O=C(O)CC(c1cccc(C(F)(F)F)c1)N1CCN(CCCCNc2ccccn2)C1=O (stereo not drawn) [Compound A10]
IC50 (αvβ6): 394 nM | IC50 (αvβ8): 232 nM
